{
  "source": "ChEMBL document CHEMBL3046822",
  "about": "“Synthesis, antiplatelet aggregation activity, and molecular modeling study of novel substituted-piperazine analogues” (2011)",
  "key": {"Platelet [1]": {"system": "Platelet", "assay": "Antiaggregating activity in Homo sapiens (human) platelet rich plasma assessed as inhibition of arachidonic acid-induced platelet aggregation at 0.5 uM incubated for 4 min prior to arachidonic acid-induction measured for 5.5 min by turbidometric analysis", "assay_type": "functional"}, "Platelet [2]": {"system": "Platelet", "assay": "Antiaggregating activity in Homo sapiens (human) platelet rich plasma assessed as inhibition of arachidonic acid-induced platelet aggregation at 1 uM incubated for 4 min prior to arachidonic acid-induction measured for 5.5 min by turbidometric analysis", "assay_type": "functional, cell-free"}, "Platelet [3]": {"system": "Platelet", "assay": "Antiaggregating activity in Homo sapiens (human) platelet rich plasma assessed as inhibition of adrenaline-induced platelet aggregation at 0.4 uM incubated for 4 min prior to adrenaline-induction measured for 5.5 min by turbidometric analysis", "assay_type": "functional, cell-free"}, "Platelet [4]": {"system": "Platelet", "assay": "Antiaggregating activity in Homo sapiens (human) platelet rich plasma assessed as inhibition of adrenaline-induced platelet aggregation at 0.5 uM incubated for 4 min prior to adrenaline-induction measured for 5.5 min by turbidometric analysis", "assay_type": "functional, cell-free"}, "Platelet [5]": {"system": "Platelet", "assay": "Antiaggregating activity in Homo sapiens (human) platelet rich plasma assessed as inhibition of adrenaline-induced platelet aggregation at 1 uM incubated for 4 min prior to adrenaline-induction measured for 5.5 min by turbidometric analysis", "assay_type": "functional, cell-free"}, "[6]": {"assay": "Antiaggregating activity in Homo sapiens (human) platelet rich plasma assessed as ristocetin-induced platelet aggregation at 0.4 uM incubated for 4 min prior to ristocetin-induction measured for 5.5 min by turbidometric analysis (reference value: 65 to 99%)", "assay_type": "functional"}, "[7]": {"assay": "Antiaggregating activity in Homo sapiens (human) platelet rich plasma assessed as ristocetin-induced platelet aggregation at 0.5 uM incubated for 4 min prior to ristocetin-induction measured for 5.5 min by turbidometric analysis (reference value: 65 to 99%)", "assay_type": "functional"}, "[8]": {"assay": "Antiaggregating activity in human platelet rich plasma assessed as disaggregation of ristocetin-induced platelet aggregation at 1 uM incubated for 4 min prior to ristocetin-induction measured for 5.5 min by turbidometric analysis relative to control", "assay_type": "functional"}, "Platelet [9]": {"system": "Platelet", "assay": "Antiaggregating activity in Homo sapiens (human) platelet rich plasma assessed as inhibition of ADP-induced platelet aggregation at 0.4 uM incubated for 4 min prior to ADP-induction measured for 5.5 min by turbidometric analysis", "assay_type": "functional, cell-free"}, "Platelet [10]": {"system": "Platelet", "assay": "Antiaggregating activity in Homo sapiens (human) platelet rich plasma assessed as inhibition of ADP-induced platelet aggregation at 0.5 uM incubated for 4 min prior to ADP-induction measured for 5.5 min by turbidometric analysis", "assay_type": "functional, cell-free"}, "Platelet [11]": {"system": "Platelet", "assay": "Antiaggregating activity in Homo sapiens (human) platelet rich plasma assessed as inhibition of ADP-induced platelet aggregation at 1 uM incubated for 4 min prior to ADP-induction measured for 5.5 min by turbidometric analysis", "assay_type": "functional, cell-free"}, "Platelet [12]": {"system": "Platelet", "assay": "Antiaggregating activity in Homo sapiens (human) platelet rich plasma assessed as inhibition of collagen-induced platelet aggregation at 0.4 uM incubated for 4 min prior to collagen-induction measured for 5.5 min by turbidometric analysis", "assay_type": "functional, cell-free"}, "Platelet [13]": {"system": "Platelet", "assay": "Antiaggregating activity in Homo sapiens (human) platelet rich plasma assessed as inhibition of collagen-induced platelet aggregation at 0.5 uM incubated for 4 min prior to collagen-induction measured for 5.5 min by turbidometric analysis", "assay_type": "functional, cell-free"}, "Platelet [14]": {"system": "Platelet", "assay": "Antiaggregating activity in Homo sapiens (human) platelet rich plasma assessed as inhibition of collagen-induced platelet aggregation at 1 uM incubated for 4 min prior to collagen-induction measured for 5.5 min by turbidometric analysis", "assay_type": "functional, cell-free"}, "Platelet [15]": {"system": "Platelet", "assay": "Antiaggregating activity in Homo sapiens (human) platelet rich plasma assessed as inhibition of arachidonic acid-induced platelet aggregation at 0.4 uM incubated for 4 min prior to arachidonic acid-induction measured for 5.5 min by turbidometric analysis", "assay_type": "functional, cell-free"}},
  "note": "Activity calls are given as the source filed them. The calls are words filed in the database; no cut-off is given here.",
  "data": [
    {"smiles": "Cl.O=C(c1cccnc1)N1CCN(c2ccccc2Cl)CC1", "values": [
      {"measurement": "inhibition", "setting": "Platelet [1]", "value": "Active"},
      {"measurement": "inhibition", "setting": "Platelet [2]", "value": "Active"},
      {"measurement": "inhibition", "setting": "Platelet [3]", "value": "Active"},
      {"measurement": "inhibition", "setting": "Platelet [4]", "value": "Active"},
      {"measurement": "inhibition", "setting": "Platelet [5]", "value": "Active"},
      {"measurement": "Activity", "setting": "[6]", "value": 77, "unit": "%"},
      {"measurement": "Activity", "setting": "[7]", "value": 71, "unit": "%"},
      {"measurement": "Activity", "setting": "[8]", "value": 23, "unit": "%"},
      {"measurement": "inhibition", "setting": "Platelet [9]", "value": "Active"},
      {"measurement": "inhibition", "setting": "Platelet [10]", "value": "Active"},
      {"measurement": "inhibition", "setting": "Platelet [11]", "value": "Active"},
      {"measurement": "inhibition", "setting": "Platelet [12]", "value": "Active"},
      {"measurement": "inhibition", "setting": "Platelet [13]", "value": "Active"},
      {"measurement": "inhibition", "setting": "Platelet [14]", "value": "Active"},
      {"measurement": "inhibition", "setting": "Platelet [15]", "value": "Active"}
    ]}
  ]
}
